Test results: ChEMBL document CHEMBL2429781, “Cell-based medicinal chemistry optimization of high-throughput screening (HTS) hits for orally active antimalarials. Part 1: challenges in potency and absorption, distribution, metabolism, excretion/pharmacokinetics (ADME/PK)” (J Med Chem, 2013)
≈ marks a conversion by molar mass, not a printed value. Each block holds one molecule with its values, some of them ahead of it.

Legend:
[1] = target: Voltage-gated inwardly rectifying potassium channel KCNH2 (Homo sapiens, UniProt Q12809); assay: Binding affinity to human ERG channel
[2] = test system: Plasmodium falciparum; assay: Antiplasmodial activity against Plasmodium falciparum W2; format: functional, organism-based
[3] = Aqueous solubility of the compound; format: physicochemical; conditions: aqueous (not further specified)
[4] = test system: Plasmodium falciparum; assay: Antiplasmodial activity against Plasmodium falciparum W2/Indochina after 72 hrs by SYBR Green method; format: functional
[5] = Half life in mouse liver microsomes; format: ADME, Microsome
[6] = test system: Plasmodium falciparum; assay: Antiplasmodial activity against chloroquine-sensitive Plasmodium falciparum 3D7; format: functional, organism-based
[7] = test system: Plasmodium falciparum; assay: Antiplasmodial activity against atovaquone-resistant Plasmodium falciparum Tm90.C2B after 72 hrs by MSF assay; format: functional, organism-based
[8] = Half life in mouse hepatic microsomes by LC/MS analysis in presence of NADPH; format: ADME; conditions: liver microsomes
[9] = test system: Plasmodium falciparum; assay: Antiplasmodial activity against Plasmodium falciparum after 72 hrs by MSF assay; format: functional, organism-based
[10] = test system: Plasmodium falciparum; assay: Antimicrobial activity against clinical isolates of Plasmodium falciparum; format: functional, organism-based
[11] = Solubility of the compound at pH 6.8; format: physicochemical; conditions: buffer
[12] = test system: Plasmodium falciparum; assay: Antiplasmodial activity against blood stage Plasmodium falciparum 3D7 by SYBR Green method; format: functional, organism-based
[13] = Elimination half life in CD-1 mouse at 5 mg/kg, po; format: ADME, organism-based; design: dose 5 mg/kg, route oral; conditions: in vivo, read-out: beta t1/2 (converted)
[14] = test system: Plasmodium berghei; assay: Antiplasmodial activity against Plasmodium berghei infected po dosed CD-1 mouse model administered qd measured on day 4; format: functional; conditions: 96 h
[15] = test system: Plasmodium; assay: Antimicrobial activity against Plasmodium; format: functional
[16] = test system: Plasmodium falciparum; assay: Antiplasmodial activity against wild type Plasmodium falciparum 3D7; format: functional, organism-based
[17] = test system: Plasmodium falciparum; assay: Antiplasmodial activity against blood stage form of Plasmodium falciparum NF54; format: functional, organism-based

Voltage-gated inwardly rectifying potassium channel KCNH2, sequence (Q12809 whole entry): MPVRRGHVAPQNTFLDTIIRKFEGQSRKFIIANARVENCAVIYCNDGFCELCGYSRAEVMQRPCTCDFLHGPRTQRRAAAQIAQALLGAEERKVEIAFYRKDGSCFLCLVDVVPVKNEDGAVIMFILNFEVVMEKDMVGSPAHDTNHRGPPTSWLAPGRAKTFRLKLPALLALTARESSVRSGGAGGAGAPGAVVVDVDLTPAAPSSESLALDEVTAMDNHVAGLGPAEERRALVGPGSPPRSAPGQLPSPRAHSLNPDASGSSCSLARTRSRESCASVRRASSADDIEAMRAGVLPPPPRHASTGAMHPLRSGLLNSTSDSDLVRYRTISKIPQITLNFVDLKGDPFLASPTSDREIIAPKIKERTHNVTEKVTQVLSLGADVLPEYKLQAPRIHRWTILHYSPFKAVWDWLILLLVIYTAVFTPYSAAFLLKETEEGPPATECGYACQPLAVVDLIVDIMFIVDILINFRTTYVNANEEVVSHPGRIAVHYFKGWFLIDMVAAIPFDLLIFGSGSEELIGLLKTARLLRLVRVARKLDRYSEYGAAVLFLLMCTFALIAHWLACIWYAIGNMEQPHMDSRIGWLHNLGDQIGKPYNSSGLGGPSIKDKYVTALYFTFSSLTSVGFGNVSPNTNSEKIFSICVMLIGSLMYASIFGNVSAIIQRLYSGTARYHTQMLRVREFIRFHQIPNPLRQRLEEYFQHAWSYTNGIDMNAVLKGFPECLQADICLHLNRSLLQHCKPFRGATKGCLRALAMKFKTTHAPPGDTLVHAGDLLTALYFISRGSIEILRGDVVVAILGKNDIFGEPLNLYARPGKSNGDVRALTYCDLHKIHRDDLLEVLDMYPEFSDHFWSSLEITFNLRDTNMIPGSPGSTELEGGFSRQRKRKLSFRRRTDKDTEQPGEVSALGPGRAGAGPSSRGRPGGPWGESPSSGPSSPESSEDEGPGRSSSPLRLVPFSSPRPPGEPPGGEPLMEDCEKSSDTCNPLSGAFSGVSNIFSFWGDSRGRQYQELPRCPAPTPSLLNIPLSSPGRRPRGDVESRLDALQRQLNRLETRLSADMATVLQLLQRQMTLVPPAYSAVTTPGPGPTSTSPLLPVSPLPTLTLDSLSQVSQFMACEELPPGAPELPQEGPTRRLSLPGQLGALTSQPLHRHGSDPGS

EC50 [2]: 6 nM
Compound: CC1(C)c2nc(-c3ccc(F)cc3)c(Nc3ccc(Cl)cc3)n2CCN1C(=O)CN
IC50 [1]: 7200 nM

Compound: O=c1c2c([nH]c3ccc(-c4ccc(C(F)(F)F)cc4)cc13)CCSC2
solubility [3]: 2 µM (≈ 0.723 µg/mL) | Activity [4]: 30 nM | half-life [5]: > 3 h

EC50 [6]: 420 nM
Compound: FC(F)(F)Oc1ccc(Nc2cc(Nc3nccn3-c3cccc(C(F)(F)F)c3)ncn2)cc1

Compound: CCCCCCCc1c(C)[nH]c2cc(F)cc(F)c2c1=O
EC50 [7]: 80 nM | half-life [8]: 0.245 h | EC50 [9]: 0.1 nM

Compound: COc1ccc2c(=O)c(CCCCCC(F)(F)F)c(C)[nH]c2c1
EC50 [7]: 66 nM | EC50 [9]: 30 nM

Compound: COc1cc2[nH]c(C)c(-c3ccc(Oc4ccc(OC(F)(F)F)cc4)cc3)c(=O)c2cc1Cl
EC50 [10]: 1 nM | solubility [11]: < 1 µM

EC50 [12]: 30 nM | half-life [13]: 10.6 h
Compound: CCOC(=O)c1c(-c2ccc(-c3ccc(OC(F)(F)F)cc3)cn2)[nH]c2ccccc2c1=O
ED50 [14]: 2 mg/kg

EC50 [15]: 20000 nM
Compound: Cc1nc(C)c(Cl)c(O)c1Cl [CLOPIDOL]

EC50 [16]: 0.46 nM
Compound: CCOC(=O)c1c(C)[nH]c2cc(Cc3ccc(OC(F)(F)F)cc3)ccc2c1=O

EC50 [17]: 1 nM
Compound: C[C@H]1Cc2c([nH]c3cc(Cl)c(F)cc23)[C@@]2(N1)C(=O)Nc1ccc(Cl)cc12 [CIPARGAMIN]
